From publication PMC7031696 (Cell chemical biology, 2019)
Like-named read-outs stand apart in the source and are kept apart here.

Assays:
[1] = system: asynchronous 3D7-A10 parasite cultures; assay: Standard 72-h exposure asexual blood stage susceptibility assay (IC50^72h); assay type: cell-based, Plasmodium falciparum; settings: Plasmodium falciparum, 3D7, 72 h, read-out: Overall (72hr assay) Mean IC50 (IC50^72h)
[2] = system: 3D7-MR4 trophozoite parasite-infected RBCs; assay: Metabolomic profiling (hydrophilic metabolite changes, UHPLC-MS); assay type: cell-based, Plasmodium falciparum
[3] = system: Plasmodium falciparum 3D7-A10 parasites; assay: Stage specificity assay (8-h exposure of synchronized stages, IC50^8h); assay type: cell-based; settings: for IC50: Plasmodium falciparum

SMILES: CC(C)C[C@@H](/C=C/S(C)(=O)=O)NC(=O)[C@H](CC(C)C)NC(=O)[C@H](Cc1c[nH]c2ccccc12)NC(=O)CN1CCOCC1 [WLL-vs, reference compound]
- IC50 [1]: 7.2 nM
- changes within the set of metabolites detected (low fold change group) ([2]; 10 × IC50^72h, 2.5 hr, trophozoites): did not induce major changes
- Log2(fold changes) 3-phosphoglycerate ([2]; metabolite 3-phosphoglycerate, log2 fold change): -0.1339
- Log2(fold changes) 4-Pyridoxic acid ([2]; metabolite 4-Pyridoxic acid, log2 fold change): 0.0000
- Log2(fold changes) 4-aminobutyrate ([2]; metabolite 4-aminobutyrate, log2 fold change): -0.0215
- Log2(fold changes) 4-phosphopantetheine ([2]; metabolite 4-phosphopantetheine, log2 fold change): 0.0000
- Log2(fold changes) 4-phosphopantothenate ([2]; metabolite 4-phosphopantothenate, log2 fold change): -0.0913
- Log2(fold changes) 5-aminopentanoic acid ([2]; metabolite 5-aminopentanoic acid, log2 fold change): 0.0000
- Log2(fold changes) 5-methyl-THF ([2]; metabolite 5-methyl-THF, log2 fold change): 0.0000
- Log2(fold changes) 5-phosphoribosyl-1-pyrophosphate ([2]; metabolite 5-phosphoribosyl-1-pyrophosphate, log2 fold change): -0.1277
- Log2(fold changes) 6-phospho-D-gluconate ([2]; metabolite 6-phospho-D-gluconate, log2 fold change): -0.0373
- Log2(fold change) HVDD ([2]; metabolite HVDD): -0.5028
- Log2(fold change) Hydroxyisocaproic acid ([2]; metabolite Hydroxyisocaproic acid): 0.0000
- Log2(fold change) IDP ([2]; metabolite IDP): 0.0000
- Log2(fold change) IMP ([2]; metabolite IMP): 0.0400
- Log2(fold change) Inositol ([2]; metabolite Inositol): 0.0000
- Log2(fold change) Isopentyl-PP ([2]; metabolite Isopentyl-PP): 0.0000
- Log2(fold change) L-arginino-succinate ([2]; metabolite L-arginino-succinate): 0.0000
- Log2(fold change) LD ([2]; metabolite LD): 0.0000
- Log2(fold change) Myristoyl/tetradecanoyl-CoA ([2]; metabolite Myristoyl/tetradecanoyl-CoA): 0.0000
- Log2(fold change) N-Acetyl-L-alanine ([2]; metabolite N-Acetyl-L-alanine): -0.0632
- Log2(fold change) N-acetyl-L-ornithine ([2]; metabolite N-acetyl-L-ornithine): -0.0046
- Log2(fold change) N-acetyl-glucosamine-1/6-phosphate ([2]; metabolite N-acetyl-glucosamine-1/6-phosphate): -0.0854
- Log2(fold change) N-acetyl-glutamate ([2]; metabolite N-acetyl-glutamate): 0.1610
- Log2(fold change) N-acetyl-glutamine ([2]; metabolite N-acetyl-glutamine): 0.0000
- Log2(fold change) N-carbamoyl-L-aspartate ([2]; metabolite N-carbamoyl-L-aspartate): 0.1147
- Log2(fold change) NAD+ ([2]; metabolite NAD+): 0.0000
- Log2(fold change) NADH ([2]; metabolite NADH): 0.3385
- Log2(fold change) NADP+ ([2]; metabolite NADP+): -0.1225
- Log2(fold change) NADPH ([2]; metabolite NADPH): 0.0976
- Log2(fold change) O-acetyl-L-serine ([2]; metabolite O-acetyl-L-serine): 0.0000
- Log2(fold change) Octoluse 8/1P ([2]; metabolite Octoluse 8/1P): 0.0000
- Log2(fold change) Octoluse Bisphosphate ([2]; metabolite Octoluse Bisphosphate): -0.1506
- Log2(fold change) PD ([2]; metabolite PD): -0.2643
- Log2(fold change) PE ([2]; metabolite PE): -0.3236
- Log2(fold change) PEE ([2]; metabolite PEE): -0.1344
- Log2(fold change) PEEK ([2]; metabolite PEEK): 0.0000
- Log2(fold change) PVNF ([2]; metabolite PVNF): -0.5296
- Log2(fold change) Pyroglutamic acid ([2]; metabolite Pyroglutamic acid): 0.0000
- Log2(fold change) Pyrophosphate ([2]; metabolite Pyrophosphate): 0.0000
- Log2(fold change) Ribose-5-phosphate ([2]; metabolite Ribose-5-phosphate): -0.2996
- Log2(fold change) S-adenosyl-L-homocysteine ([2]; metabolite S-adenosyl-L-homocysteine): -0.2761
- Log2(fold change) S-adenosyl-L-methioninamine ([2]; metabolite S-adenosyl-L-methioninamine): 0.0000
- Log2(fold change) S-adenosyl-L-methionine ([2]; metabolite S-adenosyl-L-methionine): 0.0000
- Log2(fold change) S-methyl-5'-thioadenosine ([2]; metabolite S-methyl-5'-thioadenosine): 0.0000
- Log2(fold change) SD ([2]; metabolite SD): -0.1301
- Log2(fold change) SDL ([2]; metabolite SDL): 0.0000
- Log2(fold change) SID ([2]; metabolite SID): -0.3691
- Log2(fold change) Sedoheptulose bisphosphate ([2]; metabolite Sedoheptulose bisphosphate): -0.1909
- Log2(fold change) Thiamine pyrophosphate ([2]; metabolite Thiamine pyrophosphate): 0.0000
- Log2(fold changes) UDP-D-glucose ([2]; metabolite UDP-D-glucose, log2 fold change): -0.0066
- Log2(fold changes) UDP-D-glucuronate ([2]; metabolite UDP-D-glucuronate, log2 fold change): -0.1270
- Log2(fold changes) UDP-N-acetyl-glucosamine ([2]; metabolite UDP-N-acetyl-glucosamine, log2 fold change): -0.0647
- Log2(fold changes) UDP ([2]; metabolite UDP, log2 fold change): -0.3774
- Log2(fold changes) UMP ([2]; metabolite UMP, log2 fold change): 0.1341
- Log2(fold changes) UTP ([2]; metabolite UTP, log2 fold change): -0.1532
- Log2(fold change) hydroxyphenylpyruvate ([2]; metabolite hydroxyphenylpyruvate): 0.0000
- Log2(fold change) hydroxyproline/Aminolevulinate ([2]; metabolite hydroxyproline/Aminolevulinate): -0.0172
- Log2(fold change) hypoxanthine ([2]; metabolite hypoxanthine): 0.1957
- Log2(fold change) indole ([2]; metabolite indole): 0.0000
- Log2(fold change) inosine ([2]; metabolite inosine): 0.0926
- Log2(fold change) isoleucine ([2]; metabolite isoleucine): 0.0638
- Log2(fold change) lactate ([2]; metabolite lactate): -0.1762
- Log2(fold change) leucine ([2]; metabolite leucine): -0.0424
- Log2(fold change) lysine ([2]; metabolite lysine): 0.0000
- Log2(fold change) malate ([2]; metabolite malate): -0.1070
- Log2(fold change) maleic acid ([2]; metabolite maleic acid): -0.1330
- Log2(fold change) methionine ([2]; metabolite methionine): 0.1427
- Log2(fold change) myo-inositol ([2]; metabolite myo-inositol): 0.0000
- Log2(fold change) nicotinamide mononucleotide ([2]; metabolite nicotinamide mononucleotide): 0.0000
- Log2(fold change) nicotinate ([2]; metabolite nicotinate): 0.0441
- Log2(fold change) ornithine ([2]; metabolite ornithine): 0.0000
- Log2(fold change) orotate ([2]; metabolite orotate): -0.0939
- Log2(fold change) orotidine-5'-phosphate ([2]; metabolite orotidine-5'-phosphate): -0.0654
- Log2(fold change) oxaloacetate ([2]; metabolite oxaloacetate): 0.0000
- Log2(fold change) p-aminobenzoate ([2]; metabolite p-aminobenzoate): 0.0000
- Log2(fold change) p-hydroxybenzoate ([2]; metabolite p-hydroxybenzoate): 0.0000
- Log2(fold change) pantothenate ([2]; metabolite pantothenate): -0.2167
- Log2(fold change) phenylalanine ([2]; metabolite phenylalanine): 0.0156
- Log2(fold change) phenylpyruvate ([2]; metabolite phenylpyruvate): 0.0000
- Log2(fold change) phosphoenolpyruvate ([2]; metabolite phosphoenolpyruvate): -0.0337
- Log2(fold change) prephenate ([2]; metabolite prephenate): 0.0000
- Log2(fold change) proline ([2]; metabolite proline): -0.1122
- Log2(fold change) pyridoxine ([2]; metabolite pyridoxine): 0.0678
- Log2(fold change) pyruvate ([2]; metabolite pyruvate): -0.3415
- Log2(fold change) riboflavin ([2]; metabolite riboflavin): 0.0000
- Log2(fold change) ribose ([2]; metabolite ribose): 0.1290
- Log2(fold change) ribose-phosphate ([2]; metabolite ribose-phosphate): -0.4836
- Log2(fold change) ribulose-5-phosphate ([2]; metabolite ribulose-5-phosphate): -0.5090
- Log2(fold change) serine ([2]; metabolite serine): -0.0671
- Log2(fold change) sn-glycerol-3-phosphate ([2]; metabolite sn-glycerol-3-phosphate): -0.0482
- Log2(fold change) succinate/Methylmalonic acid ([2]; metabolite succinate/Methylmalonic acid): 0.1064
- Log2(fold change) succinyl-CoA/methylmalonyl-CoA ([2]; metabolite succinyl-CoA/methylmalonyl-CoA): -0.0054
- Log2(fold change) taurine ([2]; metabolite taurine): 0.0000
- Log2(fold change) thiamine ([2]; metabolite thiamine): 0.0000
- Log2(fold change) threonine/homoserine ([2]; metabolite threonine/homoserine): -0.1507
- Log2(fold change) thymidine ([2]; metabolite thymidine): 0.0000
- Log2(fold changes) thymine ([2]; metabolite thymine, log2 fold change): 0.0000
- Log2(fold changes) trehalose-6-Phosphate ([2]; metabolite trehalose-6-Phosphate, log2 fold change): 0.0000
- Log2(fold changes) tryptophan ([2]; metabolite tryptophan, log2 fold change): -0.0680
- Log2(fold changes) tyrosine ([2]; metabolite tyrosine, log2 fold change): -0.0190
- Log2(fold changes) uridine ([2]; metabolite uridine, log2 fold change): 0.0000
- IC50 ([3]; 3D7, read-out: Early rings Mean IC50 (IC50^8h), 8-h exposure 0–8 hr, 3D7-A10, survival at 60 h): 23.7 nM
- IC50 ([3]; 3D7, read-out: Early trophozoites Mean IC50 (IC50^8h), 8-h exposure 16–24 hr, 3D7-A10, survival at 60 h): 57.6 nM
- IC50 ([3]; 3D7, read-out: Late rings Mean IC50 (IC50^8h), 8-h exposure 8–16 hr, 3D7-A10, survival at 60 h): 29.4 nM
- IC50 ([3]; 3D7, read-out: Late trophozoites Mean IC50 (IC50^8h), 8-h exposure 24–32 hr, 3D7-A10, survival at 60 h): 47.1 nM
- IC50 ([3]; 3D7, read-out: Schizonts Mean IC50 (IC50^8h), 8-h exposure 32–40 hr, 3D7-A10, survival at 60 h): 50.1 nM
- Stage of peak activity (Figure 6) ([3]; period when the parasite was most susceptible (lowest IC50^8h)): ring stages
